# Laboratory results reported in patent US9023635B2, “Bacterial methods” (Imperial Innovations Limited, priority 2010, dated 2015).
# B1: PDGF-BB: platelet derived growth factor, in the BB homodimer form (protein, UniProt P01127 82-190, looked up)
# Platelet-derived growth …: SLGSLTIAEPAMIAECKTRTEVFEISRRLIDRTNANFLVWPPCVEVQRCSGCCNNRNVQCRPTQVQLRPVQVRKIEIVRKKPIFKKATVTLEDHLACKCETVAAARPVT
# modifications: BB homodimer
# notes: platelet derived growth factor, in the BB homodimer form
# What was measured:
# [1] = test system: PrkC-SAV expressing spores with biotinylated azide and alkyne; conditions: all click reaction components present; FIG. 26
# Experimental: For all PrkC-SAV spore reactions, 100 nM of biotinylated ‘sensor’ was added to 100 μl reactions of spores at a concentration of OD600 ˜1. […] All reactions were carried out at room temperature. Controls for PrkC-SAV spore experiments omitted each reagent/parameter tested and the affect on germination was assessed. After addition of germinant, terbium was added to a final concentration of 5 μM and fluorescence visualized on a UV transilluminator (Biorad), at periodic time points. A DPA standard was imaged using known concentrations and correlated to fluorescent pixels.
# PrkC-SAV expressing spores were incubated in the presence of biotinylated azide and alkyne groups with copper (FIG. 25). DPA release, i.e. germination, was measured by fluorescence in the presence of terbium as described in previous Examples.
# [2] = test system: bacterial spores in the absence of the chimeric protein; test: Germination of bacterial spores in the absence of the prkC-EPOR chimeric protein; format: cell-based, Bacillus subtilis
# [3] = test system: bacterial spore with prkC intracellular and transmembrane domain and the extracellular EPOR domain; test: Germination of bacterial spores expressing chimeric prkC-EPOR receptor; format: cell-based, Bacillus subtilis
# [4] = test system: prkC-SAV spores with complementary biotinylated oligos; test: Germination of prkC-SAV spores with structure-switching anti-thrombin aptamers; format: cell-based; conditions: FIG. 30
# Text: Hall et al (2009) describe a method for protein detection using structure switching aptamers. The well-known example of thrombin as a target, described in the Introduction by Hall et al, was utilised to assess the use of bacterial spores as an alternative readout to release of a quencher from a fluorophore, as illustrated in FIGS. 29-30.
# [5] = test system: prkC-SAV spores with biotinylated aptamers; test: Germination of prkC-SAV spores with biotinylated anti-PDGF aptamers; format: cell-based; conditions: FIG. 28
# Text: Presence of the target protein results in binding of the protein by the aptamers, dimerisation of the prkC proteins, and germination of the spores, which can be detected, for example, using methods described in previous Examples.
molecule,measurement,setting,value
"O=S(=O)([O-])[O-].[Cu+2] [copper, copper (II) sulfate]",germination (DPA release) versus controls omitting azide/alkyne or copper,[1],significant increase in germination
erythropoietin [EPO],germination of spores,[2],does not stimulate the germination
same,germination efficiency with increased concentration,"[3]; FIG. 13, increased concentration of EPO",increase in germination efficiency
same,germination of spores,[3]; spores expressing prkC-EPOR chimera,stimulation of germination
thrombin,target protein concentration of optimal detection,[4],100 nm
B1,target protein concentration of optimal detection,[5],0.1 nM
